In ChEMBL document CHEMBL5137080, “Discovery of Novel 7-Hydroxy-5-oxo-4,5-dihydrothieno[3,2-b]pyridine-6-carboxamide Derivatives with Potent and Selective Antifungal Activity against Cryptococcus Species” (J Med Chem, 2022):

Tests used:
Candida albicans [1] = test: Antifungal activity against Candida albicans SC5314 assessed as fungal growth inhibition incubated for 48 hrs in presence of P163-0892 by broth microdilution method; format: functional
[Candida] auris [2] = Antifungal activity against Candida auris CBS 12372 assessed as fungal growth inhibition incubated for 48 hrs in presence of P163-0892 by broth microdilution method; format: functional; conditions: Candidozyma auris
Pichia kudriavzevii = test: Antifungal activity against Candida krusei ATCC2340 assessed as fungal growth inhibition incubated for 48 hrs in presence of P163-0892 by broth microdilution method; format: functional
Cryptococcus neoformans [3] = test: Antifungal activity against Cryptococcus neoformans clinical isolate BJ3 assessed as fungal growth inhibition incubated for 72 hrs in presence of P163-0892 by broth microdilution method; format: functional
Cryptococcus neoformans [4] = test: Antifungal activity against Cryptococcus neoformans clinical isolate 443 assessed as fungal growth inhibition incubated for 72 hrs in presence of P163-0892 by broth microdilution method; format: functional
Cryptococcus neoformans [5] = test: Antifungal activity against Cryptococcus neoformans clinical isolate 444 assessed as fungal growth inhibition incubated for 72 hrs in presence of P163-0892 by broth microdilution method; format: functional
Cryptococcus neoformans [6] = test: Antifungal activity against Cryptococcus neoformans clinical isolate 445 assessed as fungal growth inhibition incubated for 72 hrs in presence of P163-0892 by broth microdilution method; format: functional
[7] = system: Cryptococcus gattii species complex; test: Antifungal activity against Cryptococcus gattii clinical isolate SCZ20031 assessed as fungal growth inhibition incubated for 72 hrs in presence of P163-0892 by broth microdilution method; format: functional
[8] = system: Cryptococcus deuterogattii; test: Synergistic antifungal activity against Cryptococcus gattii WM178 assessed as fractional inhibitory concentration index incubated for 72 hrs in presence of P163-0892 by broth microdilution method; format: functional, Cryptococcus gattii species complex
Candida albicans [9] = test: Synergistic antifungal activity against Candida albicans SC5314 assessed as fractional inhibitory concentration index incubated for 48 hrs in presence of P163-0892 by broth microdilution method; format: functional
[Candida] auris [10] = Synergistic antifungal activity against Candida auris CBS 12372 assessed as fractional inhibitory concentration index incubated for 48 hrs in presence of P163-0892 by broth microdilution method; format: functional, Candidozyma auris
Cryptococcus neoformans [11] = test: Synergistic antifungal activity against Cryptococcus neoformans clinical isolate 56992 assessed as fractional inhibitory concentration index incubated for 72 hrs in presence of P163-0892 by broth microdilution method; format: functional
Cryptococcus neoformans [12] = test: Synergistic antifungal activity against Cryptococcus neoformans clinical isolate HN2 assessed as fractional inhibitory concentration index incubated for 72 hrs in presence of P163-0892 by broth microdilution method; format: functional
Cryptococcus neoformans [13] = test: Synergistic antifungal activity against Cryptococcus neoformans clinical isolate HN19 assessed as fractional inhibitory concentration index incubated for 72 hrs in presence of P163-0892 by broth microdilution method; format: functional
Cryptococcus neoformans [14] = test: Synergistic antifungal activity against Cryptococcus neoformans clinical isolate HN20 assessed as fractional inhibitory concentration index incubated for 72 hrs in presence of P163-0892 by broth microdilution method; format: functional
Cryptococcus neoformans [15] = test: Synergistic antifungal activity against Cryptococcus neoformans clinical isolate BJ3 assessed as fractional inhibitory concentration index incubated for 72 hrs in presence of P163-0892 by broth microdilution method; format: functional
[16] = system: Cryptococcus gattii species complex; test: Synergistic antifungal activity against Cryptococcus gattii clinical isolate SCZ20024 assessed as fractional inhibitory concentration index incubated for 72 hrs in presence of P163-0892 by broth microdilution method; format: functional
Cryptococcus neoformans [17] = test: Antifungal activity against Cryptococcus neoformans H99 assessed as fungal growth inhibition incubated for 72 hrs in presence of Fluconazole by broth microdilution method; format: functional
[18] = system: Cryptococcus deuterogattii; test: Antifungal activity against Cryptococcus gattii WM178 assessed as fungal growth inhibition incubated for 72 hrs in presence of Fluconazole by broth microdilution method; format: functional, Cryptococcus gattii species complex
Cryptococcus gattii = test: Antifungal activity against Cryptococcus gattii WM179 assessed as fungal growth inhibition incubated for 72 hrs in presence of Fluconazole by broth microdilution method; format: functional, Cryptococcus gattii species complex
Cryptococcus neoformans [19] = test: Antifungal activity against Cryptococcus neoformans clinical isolate HN2 assessed as fungal growth inhibition incubated for 72 hrs in presence of Fluconazole by broth microdilution method; format: functional
Cryptococcus neoformans [20] = test: Antifungal activity against Cryptococcus neoformans clinical isolate HN15 assessed as fungal growth inhibition incubated for 72 hrs in presence of Fluconazole by broth microdilution method; format: functional
Cryptococcus neoformans [21] = test: Antifungal activity against Cryptococcus neoformans clinical isolate HN17 assessed as fungal growth inhibition incubated for 72 hrs in presence of Fluconazole by broth microdilution method; format: functional
Cryptococcus neoformans [22] = test: Antifungal activity against Cryptococcus neoformans clinical isolate HN19 assessed as fungal growth inhibition incubated for 72 hrs in presence of Fluconazole by broth microdilution method; format: functional
Cryptococcus neoformans [23] = test: Antifungal activity against Cryptococcus neoformans clinical isolate HN20 assessed as fungal growth inhibition incubated for 72 hrs in presence of Fluconazole by broth microdilution method; format: functional
Cryptococcus neoformans [24] = test: Antifungal activity against Cryptococcus neoformans clinical isolate BJ3 assessed as fungal growth inhibition incubated for 72 hrs in presence of Fluconazole by broth microdilution method; format: functional
[25] = system: Cryptococcus gattii species complex; test: Antifungal activity against Cryptococcus gattii clinical isolate SCZ20031 assessed as fungal growth inhibition incubated for 72 hrs in presence of Fluconazole by broth microdilution method; format: functional
[26] = system: Cryptococcus deuterogattii; test: Synergistic antifungal activity against Cryptococcus gattii WM178 assessed as fractional inhibitory concentration index incubated for 72 hrs in presence of Fluconazole by broth microdilution method; format: functional, Cryptococcus gattii species complex
[Candida] auris [27] = Synergistic antifungal activity against Candida auris CBS 12372 assessed as fractional inhibitory concentration index incubated for 48 hrs in presence of Fluconazole by broth microdilution method; format: functional, Candidozyma auris
Candida parapsilosis = test: Synergistic antifungal activity against Candida parapsilosis ATCC22019 assessed as fractional inhibitory concentration index incubated for 48 hrs in presence of Fluconazole by broth microdilution method; format: functional
Cryptococcus neoformans [28] = test: Synergistic antifungal activity against Cryptococcus neoformans clinical isolate HN2 assessed as fractional inhibitory concentration index incubated for 72 hrs in presence of Fluconazole by broth microdilution method; format: functional
Cryptococcus neoformans [29] = test: Synergistic antifungal activity against Cryptococcus neoformans clinical isolate HN15 assessed as fractional inhibitory concentration index incubated for 72 hrs in presence of Fluconazole by broth microdilution method; format: functional
Cryptococcus neoformans [30] = test: Synergistic antifungal activity against Cryptococcus neoformans clinical isolate HN19 assessed as fractional inhibitory concentration index incubated for 72 hrs in presence of Fluconazole by broth microdilution method; format: functional
[31] = system: Cryptococcus gattii species complex; test: Synergistic antifungal activity against Cryptococcus gattii clinical isolate SCZ20024 assessed as fractional inhibitory concentration index incubated for 72 hrs in presence of Fluconazole by broth microdilution method; format: functional
[32] = MRT (0 to t) in Sprague-Dawley rat at 2 mg/kg,iv by LC-MS/MS analysis; format: ADME, organism-based; conditions: in vivo
[33] = Volume of distribution at steady state in Sprague-Dawley rat at 2 mg/kg,iv by LC-MS/MS analysis; format: ADME, organism-based; conditions: in vivo
[34] = Cmax in Sprague-Dawley rat at 5 mg/kg,po by LC-MS/MS analysis; format: ADME, organism-based; design: dose 5 mg/kg, route po; conditions: in vivo
[35] = MRT (0 to t) in Sprague-Dawley rat at 5 mg/kg,po by LC-MS/MS analysis; format: ADME, organism-based; conditions: in vivo
[36] = Selectivity index, ratio of IC50 for rabbit RBC to MIC for antifungal activity against Cryptococcus neoformans; format: toxicity; conditions: red blood cells, read-out: Selectivity Index

Q: For `OC(Cn1cncn1)(Cn1cncn1)c1ccc(F)cc1F` [FLUCONAZOLE], which MIC (Candida albicans [1]) is on record?
A: 1 µg/mL

Q: And the MIC ([Candida] auris [2])?
A: > 64 µg/mL

Q: And the MIC (Pichia kudriavzevii)?
A: 32 µg/mL

Q: What about the MIC (Cryptococcus neoformans [3]) of the same molecule?
A: 0.25 µg/mL

Q: And the MIC (Cryptococcus neoformans [4])?
A: 1 µg/mL

Q: And the MIC (Cryptococcus neoformans [5])?
A: 0.5 µg/mL

Q: And the MIC (Cryptococcus neoformans [6])?
A: 2 µg/mL

Q: And the MIC [7]?
A: 1 µg/mL

Q: What about the “fractional inhibitory concentration index (FICI)” value [8] of the same molecule?
A: 0.25

Q: And the “fractional inhibitory concentration index (FICI)” value (Candida albicans [9])?
A: 1.008

Q: And the “fractional inhibitory concentration index (FICI)” value ([Candida] auris [10])?
A: 1.008

Q: What about the “fractional inhibitory concentration index (FICI)” value (Cryptococcus neoformans [11]) of the same molecule?
A: 0.25

Q: And the “fractional inhibitory concentration index (FICI)” value (Cryptococcus neoformans [12])?
A: 0.188

Q: What about the “fractional inhibitory concentration index (FICI)” value (Cryptococcus neoformans [13]) of the same molecule?
A: 0.281

Q: What about the “fractional inhibitory concentration index (FICI)” value (Cryptococcus neoformans [14]) of the same molecule?
A: 0.375

Q: What about the “fractional inhibitory concentration index (FICI)” value (Cryptococcus neoformans [15]) of the same molecule?
A: 0.188

Q: What about the “fractional inhibitory concentration index (FICI)” value [16] of the same molecule?
A: 0.313

Q: With `CCCCNC(=O)c1c(O)c2sccc2n(Cc2ccccc2)c1=O` as the molecule, how does the MIC (Cryptococcus neoformans [17]) read?
A: 0.0625 µg/mL

Q: And the MIC [18]?
A: 0.0625 µg/mL

Q: And the MIC (Cryptococcus gattii)?
A: 0.0625 µg/mL

Q: What about the MIC (Cryptococcus neoformans [19]) of the same molecule?
A: 0.0313 µg/mL

Q: What about the MIC (Cryptococcus neoformans [20]) of the same molecule?
A: 0.0625 µg/mL

Q: And the MIC (Cryptococcus neoformans [21])?
A: 0.0313 µg/mL

Q: What about the MIC (Cryptococcus neoformans [22]) of the same molecule?
A: 0.0313 µg/mL

Q: What about the MIC (Cryptococcus neoformans [23]) of the same molecule?
A: 0.0625 µg/mL

Q: What about the MIC (Cryptococcus neoformans [24]) of the same molecule?
A: 0.0313 µg/mL

Q: What about the MIC [25] of the same molecule?
A: 0.125 µg/mL

Q: What about the “fractional inhibitory concentration index (FICI)” value [26] of the same molecule?
A: 0.25

Q: What about the “fractional inhibitory concentration index (FICI)” value ([Candida] auris [27]) of the same molecule?
A: 1.008

Q: What about the “fractional inhibitory concentration index (FICI)” value (Candida parapsilosis) of the same molecule?
A: 0.625

Q: And the “fractional inhibitory concentration index (FICI)” value (Cryptococcus neoformans [28])?
A: 0.188

Q: And the “fractional inhibitory concentration index (FICI)” value (Cryptococcus neoformans [29])?
A: 0.313

Q: And the “fractional inhibitory concentration index (FICI)” value (Cryptococcus neoformans [30])?
A: 0.281

Q: And the “fractional inhibitory concentration index (FICI)” value [31]?
A: 0.313

Q: And the “MRT(t)” value [32]?
A: 2.63 h

Q: And the Vdss [33]?
A: 7.12 L/kg

Q: And the Cmax [34]?
A: 2.97 ng/mL

Q: What about the MRT last [35] of the same molecule?
A: 3.83 h

Q: What about the selectivity ratio [36] of the same molecule?
A: > 256
